According to patent US20220000911A1, “COMBINATION OF GOLD COMPLEXES WITH OLAPARIB OR OTHER PARP1/2 INHIBITORS FOR USE IN THE TREATMENT OF CANCER RESISTANT TO SAID PARP1/2 INHIBITORS” (Varsity Pharmaceuticals Limited, priority 2020, published 2022):

Assays:
[1] = system: olaparib resistant A2780 ovarian cancer cells; assay: CellTiter Glo proliferation inhibition, olaparib resistant A2780 cells, single agents; assay type: cell-based; conditions: for IC50 / inhibition at 60 pM / inhibition at 0.00017 µM / inhibition at 0.00051 µM / inhibition at 0.00152 µM / inhibition at 0.00457 µM / inhibition at 0.01372 µM / inhibition at 0.04115 µM / inhibition at 0.12346 µM / inhibition at 0.37037 µM / inhibition at 10 µM / inhibition at 30 µM: Homo sapiens; for IC50: A2780; for inhibition at 60 pM / inhibition at 0.00017 µM / inhibition at 0.00051 µM / inhibition at 0.00152 µM / inhibition at 0.00457 µM / inhibition at 0.01372 µM / inhibition at 0.04115 µM / inhibition at 0.12346 µM / inhibition at 0.37037 µM / inhibition at 10 µM / inhibition at 30 µM / Mean Inhibition (n = 3): olaparib resistant A2780; for inhibition at 60 pM: test conc. 0.06 nM; for inhibition at 60 pM / inhibition at 0.00017 µM / inhibition at 0.00051 µM / inhibition at 0.00152 µM / inhibition at 0.00457 µM / inhibition at 0.01372 µM / inhibition at 0.04115 µM / inhibition at 0.12346 µM / inhibition at 0.37037 µM / inhibition at 10 µM / inhibition at 30 µM: read-out: Mean Inhibition (n = 3); for inhibition at 0.00017 µM: test conc. 0.17 nM; for inhibition at 0.00051 µM: test conc. 0.51 nM; for inhibition at 0.00152 µM: test conc. 1.52 nM; for inhibition at 0.00457 µM: test conc. 4.57 nM; for inhibition at 0.01372 µM: test conc. 13.72 nM; for inhibition at 0.04115 µM: test conc. 41.15 nM; for inhibition at 0.12346 µM: test conc. 123.46 nM; for inhibition at 0.37037 µM: test conc. 370.37 nM; for inhibition at 10 µM: test conc. 10,000 nM; for inhibition at 30 µM: test conc. 30,000 nM; for Maximum inhibition observed in olaparib resistant A2780 cells: concentration range 0.06 nM to 30,000 nM; for Resistance of the olaparib resistant cells to other PARPis: olaparib resistant A2780 cells
Method: A2780 ovarian cancer cells (wild-type “WT”) were cultured in RPMI 1640 Medium with 10% Fetal Bovine Serum (FBS).
To obtain cells resistant to olaparib, the cells were cultured in cell culture medium (RPMI 1640 Medium with 10% FBS) supplemented with 20 μM olaparib for one month in order to generate A2780 cells resistant to olaparib (“R”). After a month the cells were continuously cultured in the cell culture medium (RPMI 1640 Medium with 10% FBS) supplemented with 10 μM olaparib prior to use and for up to two months to maintain the resistance.
The cells were harvested from a flask into cell culture medium (RPMI 1640 Medium with 10% FBS) and then counted. The cells were diluted with culture medium and 40 μL of cell suspension (1000 cells/well) was added into each well of a 384-well cell culture plate. The plate was covered with a lid and left at room temperature without shaking for 30 minutes. The plate was then transferred to an incubator at 37° C. and 5% CO2 and left overnight.
Test compounds were dissolved at a concentration of 30 mM in DMSO to create a stock solution. 45 μL of the stock solution was transferred to a 384 pp-plate. […] The plate was then spun at room temperature at 1,000 RPM for 1 minute. 40 nL of the diluted compound was then transferred from the compound source plate into the cell plate. The cell plate was then covered with a lid and placed in an incubator at 37° C. and 5% CO2 and left for 120 hours. 72 hours after treatment with the compound detection was conducted as discussed below.
CellTiter Glo® reagents were thawed and equilibrated to room temperature. The cell plate was then removed from the incubator and equilibrated at room temperature for 15 minutes. 30 μL of the CellTiter Glo® reagents were then added into each well (at 1:1 to culture medium). The contents was mixed for 2 minutes on an orbital shaker to induce cell lysis and then the plates were allowed to incubate at room temperature for 30 minutes. Luminescence was then measured on an Envision reader (Perkin Elmer).
The inhibition activity was calculated using the following formula:
Inhibition (%)=100×(Lumvehicle−Lumsample)/(Lumvehicle−Lumblank),
where Lumvehicle is the luminescence of cells treated with 0.1% DMSO and Lumblank is cells in the culture medium.
The IC50 was calculated by fitting the curve using Xlfit (v5.3.1.3), equation 201: […]

[2] = system: wildtype A2780 ovarian cancer cells; assay: CellTiter Glo proliferation inhibition, wild-type A2780 cells; assay type: cell-based; conditions: for IC50 / inhibition at 60 pM / inhibition at 0.00017 µM / inhibition at 0.00051 µM / inhibition at 0.00152 µM / inhibition at 0.00457 µM / inhibition at 0.01372 µM / inhibition at 0.04115 µM / inhibition at 0.12346 µM / inhibition at 0.37037 µM / inhibition at 10 µM / inhibition at 30 µM: Homo sapiens; for IC50: A2780; for inhibition at 60 pM / inhibition at 0.00017 µM / inhibition at 0.00051 µM / inhibition at 0.00152 µM / inhibition at 0.00457 µM / inhibition at 0.01372 µM / inhibition at 0.04115 µM / inhibition at 0.12346 µM / inhibition at 0.37037 µM / inhibition at 10 µM / inhibition at 30 µM / Mean Inhibition (n = 3): wildtype A2780; for inhibition at 60 pM: test conc. 0.06 nM; for inhibition at 60 pM / inhibition at 0.00017 µM / inhibition at 0.00051 µM / inhibition at 0.00152 µM / inhibition at 0.00457 µM / inhibition at 0.01372 µM / inhibition at 0.04115 µM / inhibition at 0.12346 µM / inhibition at 0.37037 µM / inhibition at 10 µM / inhibition at 30 µM: read-out: Mean Inhibition (n = 3); for inhibition at 0.00017 µM: test conc. 0.17 nM; for inhibition at 0.00051 µM: test conc. 0.51 nM; for inhibition at 0.00152 µM: test conc. 1.52 nM; for inhibition at 0.00457 µM: test conc. 4.57 nM; for inhibition at 0.01372 µM: test conc. 13.72 nM; for inhibition at 0.04115 µM: test conc. 41.15 nM; for inhibition at 0.12346 µM: test conc. 123.46 nM; for inhibition at 0.37037 µM: test conc. 370.37 nM; for inhibition at 10 µM: test conc. 10,000 nM; for inhibition at 30 µM: test conc. 30,000 nM; for Maximum inhibition observed in wild-type A2780 cells: concentration range 0.06 nM to 30,000 nM
Method: The A2780 cell line is an ovarian cancer cell line that was established from an ovarian endometroid adenocarcinoma tumour. […] It is commonly used as a model to observe the effects of, and test the potency of various chemicals, methods of delivery and treatments for ovarian cancer. […] The cells were diluted with culture medium and 40 μL of cell suspension (1000 cells/well) was added into each well of a 384-well cell culture plate. The plate was covered with a lid and left at room temperature without shaking for 30 minutes. The plate was then transferred to an incubator at 37° C. and 5% CO2 and left overnight. Test compounds were dissolved at a concentration of 30 mM in DMSO to create a stock solution. 45 μL of the stock solution was transferred to a 384 pp-plate. […] The plate was then spun at room temperature at 1,000 RPM for 1 minute. 40 nL of the diluted compound was then transferred from the compound source plate into the cell plate. The cell plate was then covered with a lid and placed in an incubator at 37° C. and 5% CO2 and left for 120 hours. 72 hours after treatment with the compound detection was conducted as discussed below. CellTiter Glo® reagents were thawed and equilibrated to room temperature. The cell plate was then removed from the incubator and equilibrated at room temperature for 15 minutes. 30 μL of the CellTiter Glo® reagents were then added into each well (at 1:1 to culture medium). The contents was mixed for 2 minutes on an orbital shaker to induce cell lysis and then the plates were allowed to incubate at room temperature for 30 minutes. Luminescence was then measured on an Envision reader (Perkin Elmer). The inhibition activity was calculated using the following formula: […]

Row | IC50 [1] | IC50 [2] | SMILES | inhibition at 60 pM [1] | inhibition at 0.00017 µM [1] | inhibition at 0.00051 µM [1] | inhibition at 0.00152 µM [1] | inhibition at 0.00457 µM [1] | inhibition at 0.01372 µM [1] | inhibition at 0.04115 µM [1] | inhibition at 0.12346 µM [1] | inhibition at 0.37037 µM [1] | inhibition at 10 µM [1] | inhibition at 30 µM [1] | Maximum inhibition observed in olaparib resistant A2780 cells [1] | Mean Inhibition (n = 3) ([1]; test conc. 1,111.11 nM) | Mean Inhibition (n = 3) ([1]; test conc. 3,333.33 nM) | Resistance of the olaparib resistant cells to other PARPis [1] | inhibition at 60 pM [2] | inhibition at 0.00017 µM [2] | inhibition at 0.00051 µM [2] | other results
1 | 17.3 µM | 2.09 µM | NC(=O)c1cccc2cn(-c3ccc([C@@H]4CCCNC4)cc3)nc12 [Niraparib, niraparib] | -1.98% | 0.32% | -2.36% | 2.95% | -0.19% | -1.43% | 0.1% | -0.8% | -0.56% | 18.9% | 43.9% | 47% | −1.37% | 5.54% | resistant | 0.39% | -3.72% | -0.34% | inhibition at 0.00152 µM [2]: 0.03%; inhibition at 0.00457 µM [2]: 0.18%; inhibition at 0.01372 µM [2]: 0.97%; inhibition at 0.04115 µM [2]: -0.46%; inhibition at 0.12346 µM [2]: 3.18%; inhibition at 0.37037 µM [2]: 12.3%; inhibition at 10 µM [2]: 66.2%; inhibition at 30 µM [2]: 73.3%; Maximum inhibition observed in wild-type A2780 cells [2]: 75%; Mean Inhibition (n = 3) ([2]; test conc. 1,111.11 nM): 25.03%; Mean Inhibition (n = 3) ([2]; test conc. 3,333.33 nM): 48.63%
2 | 4.31 µM | 0.019 µM | Cn1ncnc1[C@H]1c2n[nH]c(=O)c3cc(F)cc(c23)N[C@@H]1c1ccc(F)cc1 [Talazoparib, talazoparib] | 5.28% | -0.08% | 6.18% | 2.33% | 3.63% | 4.9% | -1.18% | 2.95% | 9.21% | 49% | 64.3% | 66% | 15.45% | 34.89% | resistant | 0.69% | -0.65% | 2.86% | inhibition at 0.00152 µM [2]: 6.64%; inhibition at 0.00457 µM [2]: 23.4%; inhibition at 0.01372 µM [2]: 35.8%; inhibition at 0.04115 µM [2]: 46.3%; inhibition at 0.12346 µM [2]: 56.3%; inhibition at 0.37037 µM [2]: 64.5%; inhibition at 10 µM [2]: 77.6%; inhibition at 30 µM [2]: 78.9%; Maximum inhibition observed in wild-type A2780 cells [2]: 80%; Mean Inhibition (n = 3) ([2]; test conc. 1,111.11 nM): 71.38%; Mean Inhibition (n = 3) ([2]; test conc. 3,333.33 nM): 76.54%
